The source of these data is patent publication US20070107083A1, “Method for regulating plant growth” (priority 2004, published 2007).

“Also recorded” adds a separate entry of the source.

The test system of assay [1] is A. thaliana wild-type Col-0. Nature of the assay: Phenotype of wild-type seedlings on brassinosteroid media. The assay is classed as in vivo, Arabidopsis thaliana. The following applies: 10 day old seedlings. The method, then: (§1) 10 day old seedlings were transferred to MS media resp. MS media containing 1.0 μM BL and incubated for another 10 days before phenotypic analysis. […] Right: Seedlings of lines expressing DOGT1 grown on MS media show a BR-deficient phenotype (short hypocotyls and smaller leaves with shorter petioles compared to wild-type).
(§2) Plant material and growth conditions. A. thaliana experiments were conducted with the wild-type ecotype Columbia-0 (Col-0). For propagation seeds were sterilized, plated on standard MS growth medium (Murashige et al., Plant Physiology 15 (1962), 473-497) supplemented with 1.0% sucrose and 1.0% phytagar (Life Technologies) and subjected to a 2 day dark treatment at 4° C. to synchronize germination. The seedlings were grown for 2 weeks in a controlled environment of 16 h/8 h light-dark cycle (140 μmol m^−2 sec^−1 white light) at 22° C. before they were transferred to soil and grown at 20° C. and 55% humidity under continuous white light.
(§3) The effect of externally applied epi-brassinolide (epi-BL) was determined by transferring 10 day old seedlings of wild-type and a high DOGT1-expression line (1319/2) to media containing different concentrations of the brassinosteroid. The plants were incubated for 10 days before the phenotype was analysed.

Assay [2] deals with dwarf mutants with defects in BR biosynthesis. The following applies: application of brassinolide; cited from earlier work.
Assay [3] concerns A. thaliana high DOGT1-expression line (1319/2). As to the kind of experiment: Phenotype of DOGT1-overexpressing seedlings on brassinosteroid media. Particulars: 10 day old seedlings. The assay is classed as in vivo, Arabidopsis thaliana. The method, then:
as §1, §2, §3

Assay [4] has as its system DOGT1 promoter (PDOGT1-GUS). The assay is classed as in vivo, Arabidopsis thaliana. The following applies: seedlings; DON 5 ppm for 4 h, ACC 2 μM for 1 h, SA 200 μM for 12 h, JA 50 μM for 1 h.
Assay [5] has as its system Saccharomyces cerevisiae strain YZGA452. The assay is classed as cell-based.
In assay [6] the test system is Wild-type Saccharomyces cerevisiae. The assay is classed as cell-based.
In the next assay the test system is DOGT1 (UGT73C5) mRNA. As to the kind of experiment: Semiquantitative RT-PCR of DOGT1 mRNA after compound treatment. The assay is classed as in vivo, Arabidopsis thaliana. The following applies: for DOGT1 mRNA expression (RT-PCR): seedlings in liquid MS, 5 ppm DON, 200 μM SA, 2 μM ACC or 50 μM JA.
The subject of another assay is UGT73C6 mRNA. Nature of the assay: Semiquantitative RT-PCR of 73C6 mRNA after compound treatment. The assay is classed as in vivo, Arabidopsis thaliana. The following applies: seedlings in liquid MS, 5 ppm DON, 200 μM SA, 2 μM ACC or 50 μM JA.
For a further assay, the system named is UGT73C4 mRNA. Nature of the assay: Semiquantitative RT-PCR of 73C4 mRNA after compound treatment. Particulars: seedlings in liquid MS; 5 ppm DON, 200 μM SA. The assay is classed as in vivo, Arabidopsis thaliana.
[7] abbreviates: MS media containing 1.0 μM BL, another 10 days.
Setting [8] is: media with different concentrations, 10 days.

On to `CC(C)[C@H](C)[C@@H](O)[C@H](O)[C@@H](C)[C@H]1CC[C@H]2[C@@H]3COC(=O)[C@H]4C[C@H](O)[C@H](O)C[C@]4(C)[C@H]3CC[C@]12C` [BL, Brassinolide], for which, in assay [1] (setting [7]), the “phenotype of wild-type seedlings” value was “typical growth response”. The “growth of dwarf mutants with defects in BR biosynthesis” value in assay [2] is “restores normal growth”. In addition, the “phenotype of DOGT1-expressing seedlings” value in [3] (setting [7]) was “restores wild-type growth”.
As for `CC1=C[C@H]2O[C@@H]3[C@H](O)C[C@](C)([C@@]2(CO)[C@H](O)C1=O)[C@]31CO1` [DON, deoxynivalenol], the PDOGT1-GUS expression entry in assay [4] is listed as “induce PDOGT1-GUS expression”. Moreover, the “growth of yeast transformed with the empty library plasmid” value in assay [5] (180 ppm DON in media) is “completely inhibit growth”. Moreover, in assay [5] (strain deficient in four ABC transporters), the “sensitivity of strain YZGA452” value was “hypersensitive”. In addition, the “resistance of wild-type yeast” value in assay [6] was “highly resistant”. Also, in the assay with DOGT1 (UGT73C5) mRNA (incubation with 5 ppm DON, stated for DOGT1, 73C4 and 73C6 transcripts), the “time of peak of transcript amounts” value is on record as 4 h. In addition, in the assay with DOGT1 (UGT73C5) mRNA, the “DOGT1 mRNA expression (RT-PCR)” value is listed as “DON inducible expression”. In the assay with UGT73C6 mRNA, the “73C6 mRNA expression (RT-PCR)” value is “stronger induction of expression”. Moreover, the “73C4 mRNA expression (RT-PCR)” value with UGT73C4 mRNA is given as “DON inducible”.
As to `CC/C=C\C[C@H]1C(=O)CC[C@@H]1CC(=O)O` [JA, jasmonic acid], in assay [4], the PDOGT1-GUS expression entry was “No induction of expression”. Moreover, the “DOGT1 mRNA expression (RT-PCR)” value in the assay with DOGT1 (UGT73C5) mRNA is recorded as “responded weekly with elevated mRNA levels”; in the assay on DOGT1 (UGT73C5) mRNA (listed as Jasmonic acid), “weak induction of expression”. Also, the “73C6 mRNA expression (RT-PCR)” value is reported as “responded weekly with elevated mRNA levels” in the assay on UGT73C6 mRNA and “weak induction of expression” with UGT73C6 mRNA (listed as Jasmonic acid).
Take `O=C(O)c1ccccc1O` [SA, salicylic acid]: the PDOGT1-GUS expression entry in assay [4] is recorded as “No induction of expression”. For the same molecule, in the assay with DOGT1 (UGT73C5) mRNA, the “DOGT1 mRNA expression (RT-PCR)” value was “rather weakly; also recorded: responded weekly with elevated mRNA levels”. Besides, the “73C6 mRNA expression (RT-PCR)” value in the assay with UGT73C6 mRNA is “rather weakly; also recorded: responded weekly with elevated mRNA levels”. Further, in the assay with UGT73C4 mRNA, the “73C4 mRNA expression (RT-PCR)” value is recorded as “rather weakly”.
For `CC(C)[C@@H](C)[C@@H](O)[C@H](O)[C@@H](C)[C@H]1CC[C@H]2[C@@H]3COC(=O)[C@H]4C[C@H](O)[C@H](O)C[C@]4(C)[C@H]3CC[C@]12C` [epi-BL, epi-brassinolide], in assay [1] (setting [8]), the “phenotype of Col-0” value is on record as “typical growth response”. In addition, the “phenotype of high DOGT1-expression line 1319/2” value in assay [3] (setting [8]) is on record as “restored to wild-type phenotype”.
